Key:
adult sheep = test: Coated VECTRA vascular access grafts implanted as arteriovenous grafts in sheep, 21 days; type: in vivo
Description: Synthetic vascular access grafts (VECTRA™), a proprietary blend of segmented polyetherurethane and siloxane (20 cm in length and 5 mm in diameter), were coated with compound 2d dispersed within a PVC/DOS matrix with appropriate additives. A sheep model was used for in vivo testing. Arteriovenous grafts connecting the common carotid artery to the ipsilateral external jugular vein were surgically implanted in subcutaneous tunnel in adult sheep. Over a 3-week period, duplex ultrasound and clinical examination were performed to assess graft patency. Grafts were removed at 21 days and underwent gross and histological evaluation. […] In addition, histological studies, using appropriate stains to highlight different regions, confirm the thrombus adherent at the luminal surface and red blood cell infiltration into upper layers of the control grafts (FIG. 11A).

[1] = Thermal gravimetric analysis under nitrogen (thermal stability of diazeniumdiolates); type: physicochemical; conditions: nitrogen atmosphere
[2] = NO release from polymer films/coatings containing NO donor in PBS buffer at 37° C. by chemiluminescence; type: physicochemical
Protocol: Thermal stability of diazeniumdiolates. […] Kinetics. […] Use in Hydrophobic Systems.
In the absence of the KTpClPB, NO release decreases dramatically after approximately 1 hour. […] The decrease in NO release observed is believed to result from an increase in the pH within the organic polymer film, which decreases the decomposition rate of lipophilic diazeniumdiolates. As water diffuses into the film initiating NO release, secondary amine sites result. The secondary amine sites have a higher pKa than water and therefore deprotonate water to form hydroxide ions. The basic microdomain environment that results within the polymer, in turn, slows further decomposition of the remaining diazeniumdiolates that would generate NO. This retardation may occur as a result of the organic ammonium hydroxide microphases within the polymer, which in turn serves to stabilize the remaining diazeniumdiolates.
FT-IR were collected on Perken Elmer Spectrum VX. […] Elemental analyses were performed. Reagents. […] NO was purchased from Matheson Gases. […] General NO Addition Procedure. […] The products were finally collected and dried under vacuum. Molar Extinction Coefficients. […] The maximum wavelength and absorbance were collected. […] Kinetics Studies. […] The NO released was measured using chemiluminescence. […] Preparation of Polymer Films Containing Diazeniumdiolates. […] The membranes were covered and allowed to cure overnight. […] Polymerization to Form Boc-protected Diamine Copolymer.
General Procedure for Deprotection to Form Diamine Copolymer (c). 35 mg of the copolymer (b) was dissolved in 2 mL of dichloromethane and then 200 μL of TFA (trifluoroacetic acid) was added dropwise. The solution was stirred at room temperature for about 3 hours. The reaction mixture was diluted with 20 mL of dichloromethane, and the organic phase was then washed with sodium bicarbonate, water, and brine, and was dried with sodium sulfate. The solvent was evaporated and the resulting copolymer was dried under vacuum overnight. ^1H-NMR was performed to confirm the structure and actual composition of the copolymer. General Procedure for NO Loading to Form Polymer-Based NO Donor (d). 20 mg of the deprotected copolymer (c) was dissolved in 3 mL of dry THF and placed in a high pressure reactor with a stirring bar, and flushed with argon for about 10 minutes. 100% excess of sodium methoxide (with respect to free amine sites) was added and the reactor was closed. The reactor was purged with argon again for several times (e.g. ten times) over a 1 hour period and was charged with NO at 80 psi. The reaction mixture was stirred for 72 hours at room temperature. After the reaction was complete, the copolymer was precipitated with dry hexane under argon. The remaining solvent was removed using a vacuum, and the diazeniumdiolated copolymers (d) were examined by UV-Vis spectrum as well as NOA. This resulting copolymer was stored in sealed vials charged with argon in a freezer. Preparation of Polymer Films Containing Polymer-Based No Donor. Polymer membranes containing the polymer-based NO donor was prepared by dissolving 60.8 mg poly(vinyl chloride) (PVC), 30.4 mg dioctyl sebacate (DOS), and 9.1 mg poly(lactide-co-glycolide) (50:50) (PLGA 50:50) in 1.5 mL of freshly distilled tetrahydrofuran. […] A trilayer film configuration is employed to fabricate films. […] Four hours later the polymer cocktail was cast on top of the PVC layer. After another 4 hours, the PVC solution was cast again as a finish layer. The membrane was covered and allowed to cure overnight. Polymer films containing no additives were prepared in a similar manner. […] NO Release Measurements by Chemiluminescence. All NO measurements were performed using a Sievers Nitric Oxide Analyzer (NOA), model 280. The instrument was calibrated before each experiment using an internal two-point calibration (zero gas and 45 PPM). The flow rate was set to 200 mL/min with a cell pressure of 5.4 torr and an oxygen pressure of 6.0 psig. […]

[3] = Storage stability of polymer films containing diazeniumdiolate (NO release after storage); type: physicochemical; conditions: 4 weeks
Protocol: To determine if polymer films containing such diazeniumdiolates would also remain stable, NO release measurements were conducted for films containing 29 wt. % PVC, 60 wt. % plasticizer (DOS), 4.4 wt. % compound 2d and 6.6 wt. % KTpClPB under two storage conditions: a) room temperature under nitrogen and b) ambient conditions. Initial NO release measurements were performed for freshly prepared films. Additional NO release measurements were conducted for both storage conditions after 1, 2 and 4 weeks. […] The loss of NO may be due in part to the slow decomposition of the diazeniumdiolate within the polymer matrix owing to permeation of water vapor into the polymer film. Although this loss represents a significant percentage of the total NO releasing capability of the film, such films still yield NO surface fluxes higher than that of stimulated endothelial cells (i.e., 4·10^−10 mol·cm^−2·min^−1). However, films stored under a dry nitrogen environment at room temperature maintained 99% of their NO release after a 4-week period.

CCCCNCCCCCCN(CCCC)/[N+]([O-])=N/O [Compound 2d, (Z)-1-{N-Butyl-N-[6-(N-butylammoniohexyl)amino]}-diazen-1-ium-1,2-diolate]
graft patency (adult sheep; duplex ultrasound and clinical examination, n=2): patent at 21 days | mean luminal thrombus-free surface area (adult sheep; grafts coated with donor in PVC/DOS matrix, removed at 21 days, n=2): 95% | histological evaluation of grafts (adult sheep; grafts removed at 21 days): minimal thrombus formation and red blood cell infiltration | gross evaluation of thrombus formation on grafts (adult sheep; grafts removed at 21 days, vs control grafts): greatly reduced degree of thrombus formation | TNO loss (stable up to) [1]: 104 °C | effect of doubling the NO donor amount ([2]; 4 wt. % vs 8 wt. % in 1:2 PVC/DOS film with KTpClPB): nearly doubles the surface flux and the NO release | effect of plasticizer on NO release ([2]; PVC/NPOE matrix compared with PVC/DOS matrix, with KTpClPB): higher initial NO release | effect of increasing polymer to plasticizer ratio on NO release ([2]; PVC:DOS increased from 1:2 to 2:1, films with KTpClPB): the NO release rate decreases and the release is prolonged | period of steady NO release ([2]; SR tubes coated with plasticized SR, 4.2 wt. % donor, 8.1 wt. % KTpClPB, PBS buffer at 37° C.): 40 h | total estimated NO released from the surface of the tube ([2]; SR tubes coated with plasticized SR, 4.2 wt. % donor, 8.1 wt. % KTpClPB, after 40 h in PBS buffer at 37° C.): 15% | time after which NO release decreases dramatically ([2]; plasticized PVC film, absence of KTpClPB): approximately 1 hour | effect of adding KTpClPB on NO release ([2]; plasticized PVC films, 1:1 mol ratio KTpClPB:donor, PBS pH 7.4, 37° C.): increases, prolongs, and helps to control the release of NO | total NO release profile from film without additive ([2]; ~5 wt. % in PVC film plasticized with DOS (1:2), PBS buffer, 37° C., no KTpClPB): never achieving theoretical total NO release | theoretical total NO release achieved after storage ([3]; film 29 wt. % PVC, 60 wt. % DOS, 4.4 wt. % donor, 6.6 wt. % KTpClPB, ambient conditions): 62% | NO surface flux of films after ambient storage (vs stimulated endothelial cells) ([3]; films stored under ambient conditions): > 4·10^−10 mol·cm^−2·min^−1 | NO release maintained after storage ([3]; same film, dry nitrogen environment at room temperature): 99%

Reference: patent US20110117164A1, “Use of Additive Sites to Control Nitric Oxide Release from Nitric Oxide Donors Contained within Polymers” (priority 2004, published 2011)
